Laboratory results reported in US10039284B2, “Pesticidal compositions” (priority 2006, dated 2018).

Test system: Common Cutworm (Spodoptera litura)
Assay: whole plant or invertebrate
Conditions: for Mortality (%): 5th or 6th day
Experimental: They were diluted to a predetermined concentration with water containing a spreader (Shin-Rinoh 0.040) and subjected to the test by themselves or as a mixed liquid.
A leaf segment of cabbage was dipped for about 10 seconds in an insecticidal solution and dried in air. A wet filter paper was laid in a petri dish having a diameter of 9 cm, and the dried leaf segment of cabbage was placed thereon. 10 Second-instar larvae of common cutworm were released therein and after putting a cover, left in a constant temperature chamber at 25° C. with lightening. On the 5th or 6th day after release, dead larvae were counted, and the mortality was calculated by the following equation. Here, the insects that were moribund were counted as dead insects. Mortality (%)={(number of dead insects)/(number of surviving insects+number of dead insects)}×100
Further, the theoretical mortality (%) can be calculated from the colby's formula.

[1] = Spodoptera litura, in Brassica oleracea, foliar

`CCCCCCCCCCCCC1=C(OC(C)=O)C(=O)c2ccccc2C1=O` [Acequinocyl, acequinocyl] was tested, and the mortality at 37.5 ppm [1] was 0%, the mortality at 75 ppm [1] was 0% and the mortality at 150 ppm [1] was 0%.

For `C/C(=N\C#N)N(C)Cc1ccc(Cl)nc1` [Acetamiprid, acetamiprid], the mortality at 12.5 ppm [1] was 0% and the mortality at 25 ppm [1] was 10%.

Work on `Cc1ccc(/N=C/N(C)/C=N/c2ccc(C)cc2C)c(C)c1` [Amitraz, amitraz] yielded a mortality at 62.5 ppm [1] of 0%.

With `CCOCn1c(-c2ccc(Cl)cc2)c(C#N)c(Br)c1C(F)(F)F` [Chlorfenapyr, chlorfenapyr] the mortality at 0.4 ppm [1] was 20%.

`O=C(NC(=O)c1c(F)cccc1F)Nc1cc(Cl)c(Oc2ncc(C(F)(F)F)cc2Cl)c(Cl)c1` [Chlorfluazuron, chlorfluazuron] gave a mortality at 0.0025 ppm [1] of 0%, a mortality at 0.005 ppm [1] of 0% and a mortality at 0.01 ppm [1] of 0%.

For `CN/C(=N\[N+](=O)[O-])NCc1cnc(Cl)s1` [Clothianidin, clothianidin], the mortality at 12.5 ppm [1] was 90%.

Compound `Nc1nc(N)nc(NC2CC2)n1` [Cyromazine, cyromazine] has a mortality at 25 ppm [1] of 30% and a mortality at 50 ppm [1] of 60%.

Compound `CC1(C)[C@H](C(=O)O[C@H](C#N)c2cccc(Oc3ccccc3)c2)[C@@H]1C=C(Br)Br` [Deltamethrin, deltamethrin] has a mortality at 0.4 ppm [1] of 30%.

`CN/C(=N/CC1CCOC1)N[N+](=O)[O-]` (stereo not shown) [Dinotefuran, dinotefuran] gave a mortality at 3.1 ppm [1] of 0%, a mortality at 6.2 ppm [1] of 0% and a mortality at 12.5 ppm [1] of 13%.

Compound `N#Cc1nn(-c2c(Cl)cc(C(F)(F)F)cc2Cl)c(N)c1[S+]([O-])C(F)(F)F` (stereo not shown) [Fipronil, fipronil] has a mortality at 0.4 ppm [1] of 10% and a mortality at 0.8 ppm [1] of 60%.

For `O=C(NC(=O)c1c(F)cccc1F)Nc1ccc(Oc2ccc(C(F)(F)F)cc2Cl)cc1F` [Flufenoxuron, flufenoxuron], the mortality at 0.01 ppm [1] was 0%, the mortality at 0.02 ppm [1] was 20% and the mortality at 0.04 ppm [1] was 20%.

`CCOP(=O)(SC(C)CC)N1CCSC1=O` (stereo not shown) [Fosthiazate, fosthiazate] was tested, and the mortality at 25 ppm [1] was 88%.

In the case of `O=C(NC(=O)c1c(F)cccc1F)Nc1cc(Cl)c(OC(F)(F)C(F)C(F)(F)F)cc1Cl` (stereo not shown) [Lufenuron, lufenuron], the mortality at 0.0125 ppm [1] is reported as 70%.

With `O=C(Nc1ccccc1)N(Cc1ccc(Cl)cc1)C1CCCC1` [Pencycuron, pencycuron] the mortality at 125 ppm [1] was 0%.

Compound `CC1(C)C(C=C(Cl)Cl)C1C(=O)OCc1cccc(Oc2ccccc2)c1` (stereo not shown) [Permethrin, permethrin] has a mortality at 3.1 ppm [1] of 0%.

`CC(C)=CC1C(C(=O)OCc2cccc(Oc3ccccc3)c2)C1(C)C` (stereo not shown) [Phenothrin, phenothrin] was tested, and the mortality at 12.5 ppm [1] was 20% and the mortality at 25 ppm [1] was 80%.

In the case of `C#CCOS(=O)OC1CCCCC1Oc1ccc(C(C)(C)C)cc1` (stereo not shown) [Propargite, propargite], the mortality at 50 ppm [1] is reported as 0%, the mortality at 100 ppm [1] is reported as 0% and the mortality at 200 ppm [1] is reported as 0%.

For `CC(C)(C)c1ccc(CSc2cnn(C(C)(C)C)c(=O)c2Cl)cc1` [Pyridaben, pyridaben], the mortality at 100 ppm [1] was 0% and the mortality at 200 ppm [1] was 10%.

Work on `FC(F)(F)c1ccc(OCCCOc2c(Cl)cc(OCC=C(Cl)Cl)cc2Cl)nc1` [Pyridalyl, pyridalyl] yielded a mortality at 0.4 ppm [1] of 0% and a mortality at 1.5 ppm [1] of 80%.

`CC(=O)N1C(=O)N(NCc2cccnc2)Cc2cc(C(F)(C(F)(F)F)C(F)(F)F)ccc21` [Pyrifluquinazon, pyrifluquinazon] was tested, and the “Mortality (%)” value (other pesticide alone 25 ppm) was 0%, the “Mortality (%)” value (other pesticide alone 50 ppm) was 0% and the “Mortality (%)” value (other pesticide alone 100 ppm) was 0%.

Work on `O=C1CCc2cccc3c2N1CC3` [Pyroquilon, pyroquilon] yielded a mortality at 50 ppm [1] of 0%, a mortality at 100 ppm [1] of 0% and a mortality at 200 ppm [1] of 0%.

For `CCc1ccc(C(=O)NN(C(=O)c2cc(C)cc(C)c2)C(C)(C)C)cc1` [Tebufenozide, tebufenozide], the mortality at 1.5 ppm [1] was 20%.

`N#C/N=C1\SCCN1Cc1ccc(Cl)nc1` [Thiacloprid, thiacloprid] showed a mortality at 50 ppm [1] of 67%.

`Cc1ccc(NC(=O)c2snnc2C)cc1Cl` [Tiadinil, tiadinil] was tested, and the mortality at 50 ppm [1] was 0%, the mortality at 100 ppm [1] was 0% and the mortality at 200 ppm [1] was 0%.
